Test results taken from US10543156B2, “Shaping keratin fibres using 2-oxazolidinone compounds” (The Procter & Gamble Company, priority 2015, dated 2020).

Assay: Hair straightening efficacy on hair switches, expert grading
Conditions: after 5 wash cycles; for Straightening efficacy Mean grade: 20% active agent in crosslinking composition with 100 ppm 4,5-dibromofluorescein, 100 ppm Eosin Y, water buffered at pH 10, irons at 121° C. with UV light at 380 nm, 8 passes, score on 0-10 scale (0 curly, 10 very straight)
Method: The hair straightening efficacy is tested for the crosslinking compositions described herein. Switches of low lift naturally curly hair are employed. These are shampooed with a Pantene clarifying shampoo to ensure the hair is in a clean state with no residues that could affect the end result. The switches are then rinsed. Excess water is removed from the hair by wringing out the switches. The switches are treated with a crosslinking composition which is pre-prepared in a dark room. The crosslinking composition comprises: active agent as listed in TABLE 2; 100 ppm 4,5-dibromofluorescein; 100 ppm Eosin Y; QSP water buffered at pH 10. These ingredients are mixed on a spinner plate for 30 mins. The crosslinking composition is stored in an amber bottle or a bottle covered in electrical tape to ensure no light access to the crosslinking composition. 0.5 g of crosslinking composition per 1 g hair is employed. The crosslinking composition is left on the hair for 30 minutes. After this time, the hair is blow dried, brushed, and is then mechanically straightened with hybrid light and heat emitting straightening irons (at 250° F. [121° C.] and emitting UV light at 380 nm) with 8 passes.
The switches are then imaged. To simulate durability, the switches are then given one wash-and-dry cycle. One wash-and-dry cycle involves shampooing with a Hairtrition shampoo (Hairtrition Color Protect sulfate-free shampoo from Zotos), rinsing and then drying in a hot box. Once dry the switches are imaged again. The switches are then given 4 further wash-and-dry cycles. Once dry the switches are imaged again. An expert grader gives the images of the switches a score on a 0-10 scale. The scale is a standard scale set as curly hair having 4-5 nodes of curls is a score of 0 and very straight hair is a 10. Thus, the switches are compared to a normal state of hair.
Using an expert grader is reliable because the grader is trained on measuring/scaling the configuration of the hair from straight to curly in a consistent way. Numeric data obtained by this method is averaged, and statistical analysis is conducted using JMP statistical software available from SAS Institute at the 87% confidence level.

**Q.** For O=C1NCCO1 [2-oxazolidinone], which “Straightening efficacy Mean grade” value is on record?
**A.** 3.7

**Q.** With O=C1OCCN1CCO [N-(hydroxyethyl)-2-oxazolidinone] as the molecule, how does the “Straightening efficacy Mean grade” value read?
**A.** 4.3

**Q.** What about the “Straightening efficacy compared with the control (in words)” value (statistical analysis at the 87% confidence level) of the same molecule?
**A.** significantly better straightening efficacy than the control

**Q.** With CC(=O)N1CCOC1=O [N-acetyl-2-oxazolidinone] as the molecule, how does the “Straightening efficacy Mean grade” value read?
**A.** 3.0
